# Measurements as given in ChEMBL document CHEMBL3763148, “Synthesis, structure elucidation, DNA-PK and PI3K and anti-cancer activity of 8- and 6-aryl-substituted-1-3-benzoxazines” (Eur J Med Chem, 2016).
# Assays:
# [1] = Cytotoxicity against human RXF393 cells assessed as cell growth inhibition at 10 uM after 48 hrs by SRB assay relative to control; assay type: functional; details: RXF 393, 48 h, read-out: GI
# [2] = Cytotoxicity against human HOP92 cells assessed as cell growth inhibition at 10 uM after 48 hrs by SRB assay relative to control; assay type: functional; details: HOP-92, 48 h, read-out: GI
# NCI-H226 = test: Cytotoxicity against human NCI-H226 cells assessed as cell growth inhibition at 10 uM after 48 hrs by SRB assay relative to control; assay type: functional; details: NCI-H226, 48 h, read-out: GI
# [3] = Cytotoxicity against human HCT116 cells assessed as cell growth inhibition at 10 uM after 48 hrs by SRB assay relative to control; assay type: functional; details: HCT-116, 48 h, read-out: GI
# [4] = Cytotoxicity against human OVCAR5 cells assessed as cell growth inhibition at 10 uM after 48 hrs by SRB assay relative to control; assay type: functional; details: OVCAR-5, 48 h, read-out: GI
# [5] = Cytotoxicity against human SF268 cells assessed as cell growth inhibition at 10 uM after 48 hrs by SRB assay relative to control; assay type: functional; details: SF-268, 48 h, read-out: GI
# CCRF-CEM = test: Cytotoxicity against human CCRF-CEM cells assessed as cell growth inhibition at 10 uM after 48 hrs by SRB assay relative to control; assay type: functional; details: read-out: GI
# [6] = Cytotoxicity against human LOXIMVI cells assessed as cell growth inhibition at 10 uM after 48 hrs by SRB assay relative to control; assay type: functional; details: LOX IMVI, read-out: GI
# [7] = Cytotoxicity against human SNB75 cells assessed as cell growth inhibition at 10 uM after 48 hrs by SRB assay relative to control; assay type: functional; details: SNB-75, 48 h, read-out: GI
# [8] = Cytotoxicity against human RPMI8226 cells assessed as cell growth inhibition at 10 uM after 48 hrs by SRB assay relative to control; assay type: functional; details: RPMI-8226, 48 h, read-out: GI
# [9] = Cytotoxicity against human OVCAR8 cells assessed as cell growth inhibition at 10 uM after 48 hrs by SRB assay relative to control; assay type: functional; details: OVCAR-8, 48 h, read-out: GI
# [10] = Cytotoxicity against human HCT15 cells assessed as cell growth inhibition at 10 uM after 48 hrs by SRB assay relative to control; assay type: functional; details: HCT-15, 48 h, read-out: GI
# MCF7 = test: Cytotoxicity against human MCF7 cells assessed as cell growth inhibition at 10 uM after 48 hrs by SRB assay relative to control; assay type: functional; details: MCF7, 48 h, read-out: GI
# [11] = Cytotoxicity against human SF539 cells assessed as cell growth inhibition at 10 uM after 48 hrs by SRB assay relative to control; assay type: functional; details: SF-539, 48 h, read-out: GI
# [12] = Cytotoxicity against human UACC257 cells assessed as cell growth inhibition at 10 uM after 48 hrs by SRB assay relative to control; assay type: functional; details: UACC-257, 48 h, read-out: GI
# [13] = Cytotoxicity against human PC3 cells assessed as cell growth inhibition at 10 uM after 48 hrs by SRB assay relative to control; assay type: functional; details: PC-3, 48 h, read-out: GI
# K562 = test: Cytotoxicity against human K562 cells assessed as cell growth inhibition at 10 uM after 48 hrs by SRB assay relative to control; assay type: functional; details: K562, 48 h, read-out: GI
# [14] = Cytotoxicity against human IGROV1 cells assessed as cell growth inhibition at 10 uM after 48 hrs by SRB assay relative to control; assay type: functional; details: IGROV-1, 48 h, read-out: GI
# SR = test: Cytotoxicity against human SR cells assessed as cell growth inhibition at 10 uM after 48 hrs by SRB assay relative to control; assay type: functional; details: read-out: GI
# HT-29 = test: Cytotoxicity against human HT-29 cells assessed as cell growth inhibition at 10 uM after 48 hrs by SRB assay relative to control; assay type: functional; details: HT-29, 48 h, read-out: GI
# [15] = Cytotoxicity against human SF295 cells assessed as cell growth inhibition at 10 uM after 48 hrs by SRB assay relative to control; assay type: functional; details: SF-295, 48 h, read-out: GI
# [16] = Cytotoxicity against human NCI-ADR-RES cells assessed as cell growth inhibition at 10 uM after 48 hrs by SRB assay relative to control; assay type: functional; details: read-out: GI
# NCI-H23 = test: Cytotoxicity against human NCI-H23 cells assessed as cell growth inhibition at 10 uM after 48 hrs by SRB assay relative to control; assay type: functional; details: NCI-H23, 48 h, read-out: GI
# SK-MEL-28 = test: Cytotoxicity against human SK-MEL-28 cells assessed as cell growth inhibition at 10 uM after 48 hrs by SRB assay relative to control; assay type: functional; details: SK-MEL-28, 48 h, read-out: GI
# [17] = Cytotoxicity against human SKOV3 cells assessed as cell growth inhibition at 10 uM after 48 hrs by SRB assay relative to control; assay type: functional; details: SK-OV-3, 48 h, read-out: GI
# SK-MEL-5 = test: Cytotoxicity against human SK-MEL-5 cells assessed as cell growth inhibition at 10 uM after 48 hrs by SRB assay relative to control; assay type: functional; details: SK-MEL-5, 48 h, read-out: GI
# [18] = biological target: DNA-dependent protein kinase catalytic subunit (Homo sapiens, UniProt P78527); test: Inhibition of human DNA-PK using EPPLSQEAFADLWKK as substrate by HTRF assay
# EKVX = test: Cytotoxicity against human EKVX cells assessed as cell growth inhibition at 10 uM after 48 hrs by SRB assay relative to control; assay type: functional; details: read-out: GI
# [19] = Cytotoxicity against human OVCAR4 cells assessed as cell growth inhibition at 10 uM after 48 hrs by SRB assay relative to control; assay type: functional; details: OVCAR-4, 48 h, read-out: GI
# [20] = Cytotoxicity against human HL-60(TB) cells assessed as cell growth inhibition at 10 uM after 48 hrs by SRB assay relative to control; assay type: functional; details: HL-60, 48 h, read-out: GI
# KM12 = test: Cytotoxicity against human KM12 cells assessed as cell growth inhibition at 10 uM after 48 hrs by SRB assay relative to control; assay type: functional; details: KM12, 48 h, read-out: GI
# [21] = Cytotoxicity against human HOP62 cells assessed as cell growth inhibition at 10 uM after 48 hrs by SRB assay relative to control; assay type: functional; details: HOP-62, 48 h, read-out: GI
# U-251 = test: Cytotoxicity against human U251 cells assessed as cell growth inhibition at 10 uM after 48 hrs by SRB assay relative to control; assay type: functional; details: U-251, 48 h, read-out: GI
# [22] = Cytotoxicity against human SW620 cells assessed as cell growth inhibition at 10 uM after 48 hrs by SRB assay relative to control; assay type: functional; details: SW-620, 48 h, read-out: GI
# MDA-MB-231 = test: Cytotoxicity against human MDA-MB-231 cells assessed as cell growth inhibition at 10 uM after 48 hrs by SRB assay relative to control; assay type: functional; details: MDA-MB-231, 48 h, read-out: GI
# DNA-dependent protein kinase catalytic subunit, sequence (P78527 whole entry): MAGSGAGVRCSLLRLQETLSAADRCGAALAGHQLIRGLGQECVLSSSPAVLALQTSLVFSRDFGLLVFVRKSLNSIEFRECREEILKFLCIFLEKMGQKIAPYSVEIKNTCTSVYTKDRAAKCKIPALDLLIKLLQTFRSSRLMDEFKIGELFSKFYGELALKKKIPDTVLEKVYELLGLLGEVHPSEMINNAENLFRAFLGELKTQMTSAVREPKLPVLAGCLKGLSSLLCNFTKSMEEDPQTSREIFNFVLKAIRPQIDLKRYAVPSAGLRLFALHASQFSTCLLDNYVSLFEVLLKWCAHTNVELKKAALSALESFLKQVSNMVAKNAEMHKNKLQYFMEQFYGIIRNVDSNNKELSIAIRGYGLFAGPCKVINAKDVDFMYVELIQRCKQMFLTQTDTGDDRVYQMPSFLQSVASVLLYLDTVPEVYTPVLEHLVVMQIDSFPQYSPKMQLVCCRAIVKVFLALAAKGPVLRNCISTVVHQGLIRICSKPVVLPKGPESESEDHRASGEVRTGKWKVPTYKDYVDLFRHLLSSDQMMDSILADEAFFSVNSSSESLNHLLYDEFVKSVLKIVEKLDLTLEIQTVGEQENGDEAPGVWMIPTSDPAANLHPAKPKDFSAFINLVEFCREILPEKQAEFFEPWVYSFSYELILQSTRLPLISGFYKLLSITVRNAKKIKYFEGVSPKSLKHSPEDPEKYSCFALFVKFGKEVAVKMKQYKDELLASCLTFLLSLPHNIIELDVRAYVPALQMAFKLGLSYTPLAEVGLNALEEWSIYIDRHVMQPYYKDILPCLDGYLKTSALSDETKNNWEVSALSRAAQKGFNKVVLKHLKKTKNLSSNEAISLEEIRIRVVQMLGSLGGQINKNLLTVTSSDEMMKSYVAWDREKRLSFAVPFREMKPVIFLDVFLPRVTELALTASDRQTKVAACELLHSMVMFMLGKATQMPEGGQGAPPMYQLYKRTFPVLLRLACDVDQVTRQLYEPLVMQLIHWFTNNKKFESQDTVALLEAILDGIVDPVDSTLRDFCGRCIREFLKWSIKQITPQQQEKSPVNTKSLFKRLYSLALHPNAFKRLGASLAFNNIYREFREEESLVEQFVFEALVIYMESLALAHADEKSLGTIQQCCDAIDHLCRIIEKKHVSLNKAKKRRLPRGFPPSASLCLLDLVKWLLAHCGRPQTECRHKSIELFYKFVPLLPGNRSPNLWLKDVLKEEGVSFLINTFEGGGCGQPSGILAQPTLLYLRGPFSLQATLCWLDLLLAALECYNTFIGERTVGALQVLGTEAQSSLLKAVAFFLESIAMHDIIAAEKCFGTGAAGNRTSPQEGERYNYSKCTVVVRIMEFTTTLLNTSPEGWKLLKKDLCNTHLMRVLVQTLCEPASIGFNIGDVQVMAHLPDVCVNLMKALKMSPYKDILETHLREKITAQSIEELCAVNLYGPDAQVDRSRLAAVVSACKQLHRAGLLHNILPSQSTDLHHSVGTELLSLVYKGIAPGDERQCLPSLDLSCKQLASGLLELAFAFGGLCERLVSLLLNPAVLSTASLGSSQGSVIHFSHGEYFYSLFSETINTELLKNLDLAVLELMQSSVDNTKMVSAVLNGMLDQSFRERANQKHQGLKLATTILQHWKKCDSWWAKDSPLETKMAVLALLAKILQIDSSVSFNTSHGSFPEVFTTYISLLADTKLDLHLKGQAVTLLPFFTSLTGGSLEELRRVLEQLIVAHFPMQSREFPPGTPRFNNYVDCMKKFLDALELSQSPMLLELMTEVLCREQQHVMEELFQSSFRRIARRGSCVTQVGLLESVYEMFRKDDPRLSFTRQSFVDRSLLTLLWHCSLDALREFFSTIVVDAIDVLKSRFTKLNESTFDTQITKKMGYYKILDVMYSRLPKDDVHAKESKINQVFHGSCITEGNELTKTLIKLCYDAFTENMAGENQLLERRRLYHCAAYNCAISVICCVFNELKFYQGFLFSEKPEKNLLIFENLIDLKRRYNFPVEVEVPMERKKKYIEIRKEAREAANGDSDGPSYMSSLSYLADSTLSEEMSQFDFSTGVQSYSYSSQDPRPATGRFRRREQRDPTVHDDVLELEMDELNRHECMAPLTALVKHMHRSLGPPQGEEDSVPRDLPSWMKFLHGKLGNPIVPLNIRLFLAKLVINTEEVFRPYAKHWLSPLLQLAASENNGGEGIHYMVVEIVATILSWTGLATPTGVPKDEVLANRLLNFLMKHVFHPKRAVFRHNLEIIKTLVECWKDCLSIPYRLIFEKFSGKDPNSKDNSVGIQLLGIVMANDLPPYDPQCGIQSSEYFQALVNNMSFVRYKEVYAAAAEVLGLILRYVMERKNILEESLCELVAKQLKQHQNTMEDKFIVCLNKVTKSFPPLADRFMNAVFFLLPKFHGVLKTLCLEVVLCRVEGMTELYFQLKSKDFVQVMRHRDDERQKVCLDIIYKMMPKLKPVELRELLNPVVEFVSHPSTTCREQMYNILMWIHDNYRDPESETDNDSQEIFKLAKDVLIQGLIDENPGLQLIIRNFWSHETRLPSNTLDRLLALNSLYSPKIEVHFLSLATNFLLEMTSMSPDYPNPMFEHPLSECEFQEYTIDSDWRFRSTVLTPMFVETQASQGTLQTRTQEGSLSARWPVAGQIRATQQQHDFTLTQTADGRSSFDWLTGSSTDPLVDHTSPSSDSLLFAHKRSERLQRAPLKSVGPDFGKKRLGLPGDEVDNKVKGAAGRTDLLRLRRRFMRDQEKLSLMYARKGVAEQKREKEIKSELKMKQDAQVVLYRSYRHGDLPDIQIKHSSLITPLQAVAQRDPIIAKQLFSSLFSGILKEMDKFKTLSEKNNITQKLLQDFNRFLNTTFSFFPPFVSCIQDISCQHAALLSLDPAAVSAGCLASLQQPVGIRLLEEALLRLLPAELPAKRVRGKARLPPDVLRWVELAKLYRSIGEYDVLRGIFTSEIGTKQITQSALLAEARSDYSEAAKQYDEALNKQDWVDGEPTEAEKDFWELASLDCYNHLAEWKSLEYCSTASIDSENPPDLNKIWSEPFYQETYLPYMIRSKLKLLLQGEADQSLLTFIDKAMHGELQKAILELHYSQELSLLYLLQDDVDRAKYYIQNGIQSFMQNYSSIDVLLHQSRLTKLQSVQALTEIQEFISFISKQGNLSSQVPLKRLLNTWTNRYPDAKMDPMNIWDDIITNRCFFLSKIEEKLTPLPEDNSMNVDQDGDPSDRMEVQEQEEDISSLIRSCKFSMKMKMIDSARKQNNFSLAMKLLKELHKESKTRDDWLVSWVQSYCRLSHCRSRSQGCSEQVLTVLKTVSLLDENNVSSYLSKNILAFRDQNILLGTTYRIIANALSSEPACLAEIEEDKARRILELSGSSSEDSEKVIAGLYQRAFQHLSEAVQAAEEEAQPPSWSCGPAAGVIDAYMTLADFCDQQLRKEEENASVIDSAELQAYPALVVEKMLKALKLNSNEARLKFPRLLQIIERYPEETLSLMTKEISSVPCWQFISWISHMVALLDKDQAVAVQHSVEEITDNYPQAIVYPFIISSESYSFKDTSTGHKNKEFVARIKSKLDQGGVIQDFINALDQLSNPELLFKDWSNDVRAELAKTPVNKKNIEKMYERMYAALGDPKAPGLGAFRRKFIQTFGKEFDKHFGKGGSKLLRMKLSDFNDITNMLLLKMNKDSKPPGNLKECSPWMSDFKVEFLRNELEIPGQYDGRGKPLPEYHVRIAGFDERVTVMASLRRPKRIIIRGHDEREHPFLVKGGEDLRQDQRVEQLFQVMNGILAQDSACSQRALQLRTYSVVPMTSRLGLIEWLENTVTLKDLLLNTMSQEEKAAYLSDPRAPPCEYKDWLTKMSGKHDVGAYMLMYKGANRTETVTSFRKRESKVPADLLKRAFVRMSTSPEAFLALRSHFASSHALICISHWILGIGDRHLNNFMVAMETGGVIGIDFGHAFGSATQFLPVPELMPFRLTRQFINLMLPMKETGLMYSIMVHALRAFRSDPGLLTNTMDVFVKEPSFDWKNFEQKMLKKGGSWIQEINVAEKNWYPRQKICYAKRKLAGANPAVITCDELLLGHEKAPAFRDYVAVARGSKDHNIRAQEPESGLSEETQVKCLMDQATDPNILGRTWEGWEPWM
SMILES,inhibition of growth at 10 µM [1] [%],inhibition of growth at 10 µM [2] [%],inhibition of growth at 10 µM (NCI-H226) [%],inhibition of growth at 10 µM [3] [%],inhibition of growth at 10 µM [4] [%],inhibition of growth at 10 µM [5] [%],inhibition of growth at 10 µM (CCRF-CEM) [%],inhibition of growth at 10 µM [6] [%],inhibition of growth at 10 µM [7] [%],inhibition of growth at 10 µM [8] [%],inhibition of growth at 10 µM [9] [%],inhibition of growth at 10 µM [10] [%],inhibition of growth at 10 µM (MCF7) [%],inhibition of growth at 10 µM [11] [%],inhibition of growth at 10 µM [12] [%],inhibition of growth at 10 µM [13] [%],inhibition of growth at 10 µM (K562) [%],inhibition of growth at 10 µM [14] [%],inhibition of growth at 10 µM (SR) [%],inhibition of growth at 10 µM (HT-29) [%],further results
O=c1nc(N2CCOCC2)oc2c(-c3cccc4c3oc3ccccc34)cccc12,15,45.6,27.7,6.54,10.7,9.26,11.6,39.2,41.5,1.19,3.88,13.1,11.3,3.81,-3.42,23.2,19.4,0.3,34.7,1.56,inhibition of growth at 10 µM [15]: 0.3%; inhibition of growth at 10 µM [16]: 12.8%; inhibition of growth at 10 µM (NCI-H23): 11.1%; inhibition of growth at 10 µM (SK-MEL-28): 2.4%; inhibition of growth at 10 µM [17]: -14.9%; inhibition of growth at 10 µM (SK-MEL-5): 13.7%; IC50 [18]: 0.269 µM; inhibition of growth at 10 µM (EKVX): 18.2%; inhibition of growth at 10 µM [19]: -1.43%; inhibition of growth at 10 µM [20]: 5.92%; inhibition of growth at 10 µM (KM12): 12.7%; inhibition of growth at 10 µM [21]: 13%; inhibition of growth at 10 µM (U-251): 7.66%; inhibition of growth at 10 µM [22]: 0.96%; inhibition of growth at 10 µM (MDA-MB-231): 18%
O=c1nc(N2CCOCC2)oc2c(-c3cccc4ccccc34)cccc12,38.9,39.9,33.4,3.34,10.8,19.4,8.52,19.9,53.1,3.86,14.8,6.69,10.2,15,3.51,40.3,9.87,24.6,27.1,10.4,inhibition of growth at 10 µM [15]: 10.8%; inhibition of growth at 10 µM [16]: 16.3%; inhibition of growth at 10 µM (NCI-H23): 10.7%; inhibition of growth at 10 µM (SK-MEL-28): 5.64%; inhibition of growth at 10 µM [17]: 10%; inhibition of growth at 10 µM (SK-MEL-5): 20.8%; IC50 [18]: 20.3 µM; inhibition of growth at 10 µM (EKVX): 18.9%; inhibition of growth at 10 µM [19]: 2.95%; inhibition of growth at 10 µM [20]: 6.4%; inhibition of growth at 10 µM (KM12): 12.7%; inhibition of growth at 10 µM [21]: 19.2%; inhibition of growth at 10 µM (U-251): 14.2%; inhibition of growth at 10 µM [22]: 2.12%; inhibition of growth at 10 µM (MDA-MB-231): 6.52%
O=c1nc(N2CCOCC2)oc2c(-c3cccs3)cccc12,9.88,44.4,22,2.65,4.55,5.21,2.36,14.4,32.7,-0.55,5,0.33,21.9,1.52,3.74,17.2,0.8,8.05,18,6.61,inhibition of growth at 10 µM [15]: -0.99%; inhibition of growth at 10 µM [16]: 11%; inhibition of growth at 10 µM (NCI-H23): 13%; inhibition of growth at 10 µM (SK-MEL-28): 2.22%; inhibition of growth at 10 µM [17]: -0.56%; inhibition of growth at 10 µM (SK-MEL-5): 13.3%; IC50 [18]: 7.12 µM; inhibition of growth at 10 µM (EKVX): 14.1%; inhibition of growth at 10 µM [19]: 2.16%; inhibition of growth at 10 µM [20]: 3.68%; inhibition of growth at 10 µM (KM12): 1.99%; inhibition of growth at 10 µM [21]: 8.34%; inhibition of growth at 10 µM (U-251): 4.68%; inhibition of growth at 10 µM [22]: 1.09%; inhibition of growth at 10 µM (MDA-MB-231): -6.21%
